Data from PubChem BioAssay AID1963972 (Molecular Pharmacology Branch, DTP, NCI, 2024).
pIC50: −log10 of the molar value.

Test system: 945468-187-T-J2-PDC spheroids viability
Experiment: Anticancer human tumor 945468-187-T-J2-PDC patient-derived rectal carcinoma cell line growth inhibition [PI3K]
Settings: spheroids with HUVEC and MSC; for pIC50: curve of first compound; for viability, T/C: stronger effect = lower value
Source text: Combinatorial screen of targeted agents with the PI3K inhibitors inavolisib, alpelisib, duvelisib, and copanlisib in multi-cell type tumor spheroids
A high-throughput screen of multi-cell type tumor spheroids was designed to identify active combinations of targeted small molecules and PI3K pathway inhibitors. Complex spheroids include a stromal component modeled by human endothelial cells (HUVEC) and fibroblasts modeled by human mesenchymal stem cells (MSCs). The concentration ranges selected for each drug and investigational agent were based upon clinically achievable concentrations if the clinical Cmax of the agent was known.
Compounds. The drugs and investigational agents: inavolisib (NSC800729), alpelisib (NSC765974), duvelisib (NSC772469), copanlisib (NSC816437), ipatasertib (NSC767898), afuresertib (NSC778305), talazoparib (NSC767125), sapanisertib (NSC764658), selumetinib (NSC741078), tovorafenib (DAY101, NSC766906), vemurafenib (NSC761431), ravoxertinib (NSC781343), sotorasib (NSC818433), MRTX1133 (NSC 836407), abemaciclib (NSC 768073), palbociclib (NSC758247), venetoclax (NSC 766270), SY5609 (NSC837396), enzalutamide (NSC755605), and darolutamide (NSC825331), were obtained from the National Cancer Institute (NCI) Developmental Therapeutics Program Chemical Repository. The FDA-approved anticancer drug set is available from the NCI Developmental Therapeutics Program. […] The stock solutions were prepared in dimethyl sulfoxide (DMSO, Sigma-Aldrich, St. Louis, MO, cat. D2650) at 800-fold the tested concentration and stored at -70 degrees C prior to their use. All drugs and investigational agents were tested over a range starting from a high concentration at or near the clinical Cmax and decreasing in half-log increments. If the clinical Cmax for an agent had not been determined, the highest concentration tested was 10 microM.
Cell Culture. All cells were maintained in an incubator at 37 degrees C and 5% CO2 with 95% humidity. The PDC lines were cultured according to standard operating procedures established by the NCI PDMR (https://pdmr.cancer.gov/sops/default.htm). All PDCs were thawed and cultured in Matrigel-coated flasks prepared with a working solution of 1X Ham's F-12 nutrient mix, without supplementation (Invitrogen, Waltham, MA, cat. 11765054), 100 U/mL penicillin-streptomycin (Invitrogen, cat. 15140122), and 2.5% Matrigel (Corning Inc., Corning, NY, cat. 354248) for the first three passages. The 354836-022-R-J1-PDC, 475296-252-R-J1-PDC, and 997726-040-R-J2-PDC lines were cultured in 6A media, which includes advanced DMEM/F-12 (Thermo Fisher Scientific, cat. 12634028), 10 mM HEPES (Thermo Fisher Scientific, cat. 15630080), 1X GlutaMAX supplement (Thermo Fisher Scientific, cat. 35050061), 0.1 mg/mL primocin (InvivoGen, San Diego, CA, cat. ant-pm-2), 10% defined fetal bovine serum, heat inactivated (HyClone Laboratories Inc., Logan, UT, cat. SH30070.03HI), 50% L-WRN conditioned media (ATCC, cat. CRL-3276), 1.25 mM N-Acetyl-L-cysteine (Sigma-Aldrich, cat. A9165), 10 mM nicotinamide (Sigma-Aldrich, cat. N0636), 1X B-27 supplement (Thermo Fisher Scientific, cat. 17504044), 1X N-2 supplement (Thermo Fisher Scientific, cat. 17502048), and 10 microM Y-27632 dihydrochloride (Tocris Bioscience, Bristol, United Kingdom, cat. 1254). The 624824-186-R-J2-PDC line was cultured in 6C/Colon 1B media, which includes all 6A media components plus 50 ng/mL human EGF recombinant protein (Thermo Fisher Scientific, cat. PHG0311). […]

[1] = second compound 0.00316 µM, first compound 0.0316 µM
[2] = second compound 0.00316 µM, first compound 0.1 µM
[3] = second compound 0.00316 µM, first compound 0.316 µM
[4] = second compound 0.00316 µM, first compound 1 µM
[5] = second compound 0.00316 µM, first compound 3.16 µM
[6] = second compound 0.00316 µM, first compound 10 µM
[7] = second compound 0.01 µM, first compound 0.0316 µM
[8] = second compound 0.01 µM, first compound 0.1 µM
[9] = second compound 0.01 µM, first compound 0.316 µM
[10] = second compound 0.01 µM, first compound 1 µM
[11] = second compound 0.01 µM, first compound 3.16 µM
[12] = second compound 0.01 µM, first compound 10 µM
[13] = second compound 0.0316 µM, first compound 0.0316 µM
[14] = second compound 0.0316 µM, first compound 0.1 µM
[15] = second compound 0.0316 µM, first compound 0.316 µM
[16] = second compound 0.0316 µM, first compound 1 µM
[17] = second compound 0.0316 µM, first compound 3.16 µM
[18] = second compound 0.0316 µM, first compound 10 µM
[19] = second compound 0.1 µM, first compound 0.0316 µM
[20] = second compound 0.1 µM, first compound 0.1 µM
[21] = second compound 0.1 µM, first compound 0.316 µM
[22] = second compound 0.1 µM, first compound 1 µM
[23] = second compound 0.1 µM, first compound 3.16 µM
[24] = second compound 0.1 µM, first compound 10 µM
[25] = second compound 0.316 µM, first compound 0.0316 µM
[26] = second compound 0.316 µM, first compound 0.1 µM
[27] = second compound 0.316 µM, first compound 0.316 µM
[28] = second compound 0.316 µM, first compound 1 µM
[29] = second compound 0.316 µM, first compound 3.16 µM
[30] = second compound 0.316 µM, first compound 10 µM
[31] = second compound 1 µM, first compound 0.0316 µM
[32] = second compound 1 µM, first compound 0.1 µM
[33] = second compound 1 µM, first compound 0.316 µM
[34] = second compound 1 µM, first compound 1 µM
[35] = second compound 1 µM, first compound 3.16 µM
[36] = second compound 1 µM, first compound 10 µM
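Note: spheroids exposed to compounds for seven days before reading.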

SMILES: CC1(C)CCC(CN2CCN(c3ccc(C(=O)NS(=O)(=O)c4ccc(NCC5CCOCC5)c([N+](=O)[O-])c4)c(Oc4cnc5[nH]ccc5c4)c3)CC2)=C(c2ccc(Cl)cc2)C1 + CC(Nc1ccc2c(c1)OCCn1cc(N3C(=O)OCC3C(F)F)nc1-2)C(N)=O
- pIC50 (second compound 0.00316 µM): 5.10
- pIC50 (second compound 0.01 µM): < 5.00
- pIC50 (second compound 0.0316 µM): 5.12
- pIC50 (second compound 0.1 µM): 5.11
- pIC50 (second compound 0.316 µM): 5.17
- pIC50 (second compound 1 µM): < 5.00
- viability, T/C [1]: 113%
- viability, T/C [2]: 100%
- viability, T/C [3]: 96.6%
- viability, T/C [4]: 118%
- viability, T/C [5]: 93.2%
- viability, T/C [6]: 38.8%
- viability, T/C [7]: 94.2%
- viability, T/C [8]: 104%
- viability, T/C [9]: 118%
- viability, T/C [10]: 98.3%
- viability, T/C [11]: 89.4%
- viability, T/C [12]: 51.7%
- viability, T/C [13]: 96.1%
- viability, T/C [14]: 113%
- viability, T/C [15]: 95.3%
- viability, T/C [16]: 88.9%
- viability, T/C [17]: 101%
- viability, T/C [18]: 34.6%
- viability, T/C [19]: 98.9%
- viability, T/C [20]: 92.2%
- viability, T/C [21]: 92.4%
- viability, T/C [22]: 92.5%
- viability, T/C [23]: 98.6%
- viability, T/C [24]: 37.1%
- viability, T/C [25]: 88.1%
- viability, T/C [26]: 89%
- viability, T/C [27]: 84.3%
- viability, T/C [28]: 89.6%
- viability, T/C [29]: 83.1%
- viability, T/C [30]: 32.7%
- viability, T/C [31]: 69.2%
- viability, T/C [32]: 81.7%
- viability, T/C [33]: 94.8%
- viability, T/C [34]: 66%
- viability, T/C [35]: 77.8%
- viability, T/C [36]: 52.3%

SMILES: C[C@@H](NC(=O)c1ncnc(N)c1Cl)c1ncc(C(=O)Nc2cc(C(F)(F)F)c(Cl)cn2)s1 + CC(Nc1ccc2c(c1)OCCn1cc(N3C(=O)OCC3C(F)F)nc1-2)C(N)=O
- pIC50 (second compound 0.00316 µM): < 5.00
- pIC50 (second compound 0.01 µM): < 5.00
- pIC50 (second compound 0.0316 µM): < 5.00
- pIC50 (second compound 0.1 µM): < 5.00
- pIC50 (second compound 0.316 µM): < 5.00
- pIC50 (second compound 1 µM): < 5.00
- viability, T/C [1]: 94.6%
- viability, T/C [2]: 117%
- viability, T/C [3]: 127%
- viability, T/C [4]: 75.7%
- viability, T/C [5]: 136%
- viability, T/C [6]: 96.7%
- viability, T/C [7]: 99.2%
- viability, T/C [8]: 71.4%
- viability, T/C [9]: 115%
- viability, T/C [10]: 87.5%
- viability, T/C [11]: 98.3%
- viability, T/C [12]: 108%
- viability, T/C [13]: 84.9%
- viability, T/C [14]: 104%
- viability, T/C [15]: 115%
- viability, T/C [16]: 103%
- viability, T/C [17]: 112%
- viability, T/C [18]: 90.3%
- viability, T/C [19]: 105%
- viability, T/C [20]: 112%
- viability, T/C [21]: 104%
- viability, T/C [22]: 96.8%
- viability, T/C [23]: 97.7%
- viability, T/C [24]: 93%
- viability, T/C [25]: 72.5%
- viability, T/C [26]: 103%
- viability, T/C [27]: 105%
- viability, T/C [28]: 88.2%
- viability, T/C [29]: 86.7%
- viability, T/C [30]: 97.2%
- viability, T/C [31]: 68.7%
- viability, T/C [32]: 73.4%
- viability, T/C [33]: 67.5%
- viability, T/C [34]: 79.3%
- viability, T/C [35]: 94.4%
- viability, T/C [36]: 83.9%
